From the supplement of paper PMC10307832 come the findings set out here.

Holding throughout (assay): relative viability (nuclei count vs DMSO), 5 days (fraction); higher = more cells survive
Compound in the assay “R406 + Olaparib”: COc1cc(Nc2ncc(F)c(Nc3ccc4c(n3)NC(=O)C(C)(C)O4)n2)cc(OC)c1OC [R406] + O=C(c1cc(Cc2n[nH]c(=O)c3ccccc23)ccc1F)N1CCN(C(=O)C2CC2)CC1 [Olaparib] (partner 8 µM)
In outline:
(§1)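 Cells from lung cancer lines were seeded into 1536-well plates and, one day later, dosed by pin tool. Treatments were either a single drug or a fixed dose of an anchor drug with five library-drug doses (not always all listed) in √10 steps. After 5 days, nuclei were stained in a one-step fixation (final 0.05% Triton X-100, 1% formaldehyde, 1 ug/ml Hoechst) and counted on 4× images, and relative viability is the treated-to-vehicle nuclei ratio, as the median of duplicate plates.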

Compound in the assay “Daporinad + Trametinib”: O=C(/C=C/c1cccnc1)NCCCCC1CCN(C(=O)c2ccccc2)CC1 [Daporinad] + CC(=O)Nc1cccc(-n2c(=O)n(C3CC3)c(=O)c3c(Nc4ccc(I)cc4F)n(C)c(=O)c(C)c32)c1 [Trametinib] (partner 0.02 µM)
In outline: as §1

Compound in the assay “Daporinad + Crizotinib”: O=C(/C=C/c1cccnc1)NCCCCC1CCN(C(=O)c2ccccc2)CC1 [Daporinad] + C[C@@H](Oc1cc(-c2cnn(C3CCNCC3)c2)cnc1N)c1c(Cl)ccc(F)c1Cl [Crizotinib] (partner 1 µM)
In a few lines:
as §1

Compound in the assay “Daporinad + OSI-027”: O=C(/C=C/c1cccnc1)NCCCCC1CCN(C(=O)c2ccccc2)CC1 [Daporinad] + COc1cccc2cc(-c3nc([C@H]4CC[C@H](C(=O)O)CC4)n4ncnc(N)c34)[nH]c12 [OSI-027] (partner 0.5 µM)
In outline: as §1

Regarding UMC-11, the relative viability came to 0.392 with R406 + Olaparib (first compound 0.08 µM); 0.348 in the assay with R406 + Olaparib (first compound 0.253 µM); 0.342 with R406 + Olaparib (first compound 0.8 µM); 0.363 with R406 + Olaparib (first compound 2.53 µM); 0.199 with R406 + Olaparib (first compound 8 µM); 0.645 with Daporinad + Trametinib (first compound 0.0005 µM). The relative viability with Daporinad + Trametinib (first compound 0.001581 µM) is 0.926; with Daporinad + Trametinib (first compound 0.005 µM), 0.775; with Daporinad + Trametinib (first compound 0.01581 µM) it was 1.14; with Daporinad + Crizotinib (first compound 0.0005 µM), 0.672; in the assay with Daporinad + Crizotinib (first compound 0.001581 µM), 0.641; with Daporinad + Crizotinib (first compound 0.005 µM) it was 0.852. The relative viability in the assay with Daporinad + Crizotinib (first compound 0.01581 µM) was found to be 0.656; with Daporinad + OSI-027 (first compound 0.0005 µM) it was 0.469; in the assay with Daporinad + OSI-027 (first compound 0.001581 µM) it was 0.55; with Daporinad + OSI-027 (first compound 0.005 µM), 0.567; with Daporinad + OSI-027 (first compound 0.01581 µM), 0.689.
